Among the data in ChEMBL document CHEMBL5543168, “Discovery of Urea Derivatives of Celastrol as Selective Peroxiredoxin 1 Inhibitors against Colorectal Cancer Cells” (J Med Chem, 2024) are Activity and inhibition in vivo values, retold here.

Assay [1] relates to SW-620. Put plainly: Induction of cell cycle arrest at G2 phase in human SW620 cells at 1 uM incubated for 24 hrs by PI staining based flow cytometry (reference value: 6.77 %). It is filed as functional.
For assay [2], the system named is SW-620. Nature of the assay: Antitumor activity against human SW620 cells xenografted in BALB/c nude mouse at 2 mg/kg, ip qd for 16 days relative to control. It is filed as functional. The note with it: SW-620, 384 h, time 16 day, read-out: TGI.
Assay [3] concerns SW-620. Put plainly: Antitumor activity against human SW620 cells xenografted in BALB/c nude mouse assessed as morphological change in vacuoles in tumor cells at 2 mg/kg, ip qd for 16 days by H and E staining based analysis. It counts as functional, organism-based. The note with it: time 16.0 day.

Active and inactive are the calls of the source. The calls are words filed in the database; no cut-off is given here.

On to `COC(=O)C1(NC(=O)N[C@]2(C)CC[C@]3(C)CC[C@]4(C)C5=CC=C6C(=CC(=O)C(O)=C6C)[C@]5(C)CC[C@@]4(C)[C@@H]3C2)CCC1`, for which the Activity in the assay on SW-620 [1] worked out at 14.6%. In addition, the inhibition in vivo at 2 mg/kg in the assay on SW-620 [2] stood at 45.4%. The outcome in the assay on SW-620 [3] was Active.
